Laboratory results published in patent publication US10626144B2, “Peptide derivatives and uses thereof” (Nosopharm, priority 2014, dated 2020).
Read-outs that look alike come from different tables or passages of the source. Numbered stars: 1 amine (or outer) side, 2 acyl side, 3 side chain; on linkers, the order of the positions; unused ones are H or OH. Square brackets hold non-standard residues; d marks the D form. Peptide text beside a SMILES is read from it. * marks the point of attachment. X3 = NC[C@H](OC(=O)C(F)(F)F)[C@H](N[*:1])C(=O)[*:2]; Phe(3,4-(OMe)2) = COc1ccc(C[C@H](N)C(=O)O)cc1OC; Phe(3-CONH2) = NC(=O)c1cccc(C[C@H](N)C(=O)O)c1; X1 = O=C([C@H](Cc1cc(F)c(F)cc1F)N[*:1])[*:2]; Phe(4-CN) = N#Cc1ccc(C[C@H](N)C(=O)O)cc1; Dab(3S-OH) = NC[C@H](O)[C@H](N)C(=O)O; ΔZArg = N=C(N)NCC/C=C(\N)C(=O)O; aThr = C[C@H](O)[C@H](N)C(=O)O; dOrn = NCCC[C@@H](N)C(=O)O; Abu = CC[C@H](N)C(=O)O; NH(CH2)4NH2 = NCCCCN*

Assays:
[1] = tested on: Staphylococcus aureus ATCC 13709; assay: MIC, broth microdilution (CLSI), reference strain; details: CAMHB
Ec #4 (GUE) = assay: MIC / resistance profile, multidrug-resistant strain; details: multidrug-resistant E. coli GUE
Ec #5 (DSM22315) = assay: as above; details: multidrug-resistant E. coli DSM22315
[2] = tested on: Escherichia coli ATCC 25922; assay: MIC, broth microdilution (CLSI), reference strain; details: CAMHB
[3] = tested on: Pseudomonas aeruginosa ATCC 27853; assay: MIC, broth microdilution (CLSI), reference strain; details: CAMHB
Ec #1 (NCTC13476) = assay: MIC / resistance profile, multidrug-resistant strain; details: multidrug-resistant E. coli NCTC13476
Ec #2 (MIN) = assay: as above; details: multidrug-resistant E. coli MIN
[4] = tested on: Acinetobacter baumannii ATCC 19606; assay: MIC, broth microdilution (CLSI), reference strain; details: CAMHB
Ec #3 (EGB957) = assay: MIC / resistance profile, multidrug-resistant strain; details: multidrug-resistant E. coli EGB957
[5] = biological target: N-type calcium channels (Cav2.2) (Rattus norvegicus (Rat), UniProt Q02294); assay: biochemical; assay type: binding
[6] = class symbol, rat cerebral cortex, [125I]ω-conotoxin GVIA 0.001 nM, 30 minutes at room temperature, read-out: IC50 Cav2.2

Row | SMILES | Sa: MIC Staphylococcus aureus ATCC 13709 [1] | MIC Ec#4 (Ec #4 (GUE)) | MIC Ec#5 (Ec #5 (DSM22315)) | Ec: MIC Escherichia coli ATCC 25922 [2] | Pa: MIC Pseudomonas aeruginosa ATCC 27853 [3] | MIC Ec#1 (Ec #1 (NCTC13476)) | MIC Ec#2 (Ec #2 (MIN)) | Ab: MIC Acinetobacter baumannii ATCC 19606 [4] | MIC Ec#3 (Ec #3 (EGB957)) | IC50 [5] [nM] | IC50 ([5]; value in brackets, rat cerebral cortex, [125I]ω-conotoxin GVIA 0.001 nM, read-out: IC50 Cav2.2) [nM] | IC50 [5, 6] [nM]
1 | C[C@H](NC(=O)[C@@H](NC(=O)[C@@H](N)CCCCN)[C@@H](O)CN)C(=O)NCC(=O)N[C@H](CCCN)C(=O)N1CCC[C@H]1C(=O)N[C@@H](Cc1cc(F)c(F)cc1F)C(=O)N[C@@H](CCCCN)C(=O)N/C(=C\CCNC(=N)N)C(=O)O [24.77] (H-K[Dab(3S-OH)]AG[dOrn]P[X1]K[ΔZArg]-OH) | ++ (≤8 μg/mL) | + (≤32 μg/mL) | + (≤32 μg/mL) | ++ (≤8 μg/mL) | − (>32 μg/mL) | + (≤32 μg/mL) | + (≤32 μg/mL) | − (>32 μg/mL) | ++ (≤8 μg/mL) | – | – | –
2 | COc1ccc(C[C@H](NC(=O)[C@@H]2CCCN2C(=O)[C@@H](CCCN)NC(=O)CNC(=O)[C@H](C)NC(=O)[C@@H](NC(=O)[C@@H](N)CCCCN)[C@@H](O)CN)C(=O)N[C@@H](CCCCN)C(=O)N/C(=C\CCNC(=N)N)C(=O)O)cc1OC [24.85] (H-K[Dab(3S-OH)]AG[dOrn]P[Phe(3,4-(OMe)2)]K[ΔZArg]-OH) | + (≤32 μg/mL) | ++ (≤8 μg/mL) | + (≤32 μg/mL) | ++ (≤8 μg/mL) | − (>32 μg/mL) | ++ (≤8 μg/mL) | + (≤32 μg/mL) | − (>32 μg/mL) | + (≤32 μg/mL) | > 300 | 1200 | –
3 | C[C@H](NC(=O)[C@@H](NC(=O)[C@@H](N)CCCCN)[C@@H](O)CN)C(=O)NCC(=O)N[C@H](CCCN)C(=O)N1CCC[C@H]1C(=O)N[C@@H](Cc1cccc(C(N)=O)c1)C(=O)N[C@@H](CCCCN)C(=O)N/C(=C\CCNC(=N)N)C(=O)O [24.90] (H-K[Dab(3S-OH)]AG[dOrn]P[Phe(3-CONH2)]K[ΔZArg]-OH) | ++ (≤8 μg/mL) | ++ (≤8 μg/mL) | ++ (≤8 μg/mL) | ++ (≤8 μg/mL) | − (>32 μg/mL) | ++ (≤8 μg/mL) | ++ (≤8 μg/mL) | − (>32 μg/mL) | ++ (≤8 μg/mL) | – | – | –
4 | C[C@H](NC(=O)[C@@H](NC(=O)[C@@H](N)CCCCN)[C@@H](O)CN)C(=O)NCC(=O)N[C@H](CCCN)C(=O)N1CCC[C@H]1C(=O)N[C@@H](Cc1ccc(C#N)cc1)C(=O)N[C@@H](CCCCN)C(=O)N/C(=C\CCNC(=N)N)C(=O)O [24.100] (H-K[Dab(3S-OH)]AG[dOrn]P[Phe(4-CN)]K[ΔZArg]-OH) | ++ (≤8 μg/mL) | ++ (≤8 μg/mL) | + (≤32 μg/mL) | ++ (≤8 μg/mL) | − (>32 μg/mL) | ++ (≤8 μg/mL) | ++ (≤8 μg/mL) | − (>32 μg/mL) | ++ (≤8 μg/mL) | – | – | –
5 | C[C@H](NC(=O)[C@@H](NC(=O)[C@@H](N)CCCCN)[C@@H](O)CN)C(=O)NCC(=O)N[C@H](CCCN)C(=O)N1CCC[C@H]1C(=O)N[C@@H](Cc1c[nH]c2ccccc12)C(=O)N[C@@H](CCCCN)C(=O)N/C(=C\CCNC(=N)N)C(=O)O [24.156] (H-K[Dab(3S-OH)]AG[dOrn]PWK[ΔZArg]-OH) | ++ (≤8 μg/mL) | ++ (≤8 μg/mL) | ++ (≤8 μg/mL) | ++ (≤8 μg/mL) | − (>32 μg/mL) | + (≤32 μg/mL) | ++ (≤8 μg/mL) | − (>32 μg/mL) | ++ (≤8 μg/mL) | – | – | –
6 | C[C@H](O)[C@H](NC(=O)[C@@H](NC(=O)[C@@H](N)CCCCN)[C@@H](O)CN)C(=O)NCC(=O)N[C@H](CCCN)C(=O)N1CCC[C@H]1C(=O)N[C@@H](Cc1cnc[nH]1)C(=O)N[C@@H](CCCCN)C(=O)N/C(=C\CCNC(=N)N)C(=O)O [25.2] (H-K[Dab(3S-OH)][aThr]G[dOrn]PHK[ΔZArg]-OH) | − (>32 μg/mL) | – | – | − (>32 μg/mL) | − (>32 μg/mL) | – | – | − (>32 μg/mL) | – | – | – | > 300
7 | CC[C@H](C)[C@H](NC(=O)[C@@H](NC(=O)[C@@H](N)CCCCN)[C@@H](O)CN)C(=O)NCC(=O)N[C@H](CCCN)C(=O)N1CCC[C@H]1C(=O)N[C@@H](Cc1cnc[nH]1)C(=O)N[C@@H](CCCCN)C(=O)N/C(=C\CCNC(=N)N)C(=O)N[C@@H](CCCCN)C(=O)NCCCCN [27.1] (H-K[Dab(3S-OH)]IG[dOrn]PHK[ΔZArg]K-{NH(CH2)4NH2}) | ++ (≤8 μg/mL) | – | – | ++ (≤8 μg/mL) | − (>32 μg/mL) | – | – | − (>32 μg/mL) | – | – | – | < 30
8 | CC[C@H](C)[C@H](NC(=O)[C@@H](NC(=O)[C@@H](N)CCCCN)[C@@H](O)CN)C(=O)NCC(=O)N[C@H](CCCN)C(=O)N1CCC[C@H]1C(=O)N[C@@H](Cc1cnc[nH]1)C(=O)N[C@@H](CCCCN)C(=O)N/C(=C\CCNC(=N)N)C(=O)O [27.2] (H-K[Dab(3S-OH)]IG[dOrn]PHK[ΔZArg]-OH) | + (≤32 μg/mL) | – | – | − (>32 μg/mL) | − (>32 μg/mL) | – | – | − (>32 μg/mL) | – | – | – | > 300
9 | CC[C@H](NC(=O)[C@@H](NC(=O)[C@@H](N)CCCCN)[C@@H](O)CN)C(=O)NCC(=O)N[C@H](CCCN)C(=O)N1CCC[C@H]1C(=O)N[C@@H](Cc1cnc[nH]1)C(=O)N[C@@H](CCCCN)C(=O)N/C(=C\CCNC(=N)N)C(=O)N[C@@H](CCCCN)C(=O)NCCCCN [28.1] (H-K[Dab(3S-OH)][Abu]G[dOrn]PHK[ΔZArg]K-{NH(CH2)4NH2}) | ++ (≤8 μg/mL) | – | – | ++ (≤8 μg/mL) | − (>32 μg/mL) | – | – | − (>32 μg/mL) | – | – | – | < 30
10 | CC[C@H](NC(=O)[C@@H](NC(=O)[C@@H](N)CCCCN)[C@@H](O)CN)C(=O)NCC(=O)N[C@H](CCCN)C(=O)N1CCC[C@H]1C(=O)N[C@@H](Cc1cnc[nH]1)C(=O)N[C@@H](CCCCN)C(=O)N/C(=C\CCNC(=N)N)C(=O)O [28.2] (H-K[Dab(3S-OH)][Abu]G[dOrn]PHK[ΔZArg]-OH) | + (≤32 μg/mL) | – | – | − (>32 μg/mL) | − (>32 μg/mL) | – | – | − (>32 μg/mL) | – | – | – | > 300
11 | CC(C)[C@H](NC(=O)[C@@H](NC(=O)[C@@H](N)CCCCN)[C@@H](O)CN)C(=O)NCC(=O)N[C@H](CCCN)C(=O)N1CCC[C@H]1C(=O)N[C@@H](Cc1cnc[nH]1)C(=O)N[C@@H](CCCCN)C(=O)N/C(=C\CCNC(=N)N)C(=O)N[C@@H](CCCCN)C(=O)NCCCCN [212.1] (H-K[Dab(3S-OH)]VG[dOrn]PHK[ΔZArg]K-{NH(CH2)4NH2}) | ++ (≤8 μg/mL) | – | – | ++ (≤8 μg/mL) | − (>32 μg/mL) | – | – | − (>32 μg/mL) | – | – | – | < 30
12 | CC(C)[C@H](NC(=O)[C@@H](NC(=O)[C@@H](N)CCCCN)[C@@H](O)CN)C(=O)NCC(=O)N[C@H](CCCN)C(=O)N1CCC[C@H]1C(=O)N[C@@H](Cc1cnc[nH]1)C(=O)N[C@@H](CCCCN)C(=O)N/C(=C\CCNC(=N)N)C(=O)O [212.2] (H-K[Dab(3S-OH)]VG[dOrn]PHK[ΔZArg]-OH) | + (≤32 μg/mL) | – | – | − (>32 μg/mL) | − (>32 μg/mL) | – | – | − (>32 μg/mL) | – | – | – | > 300
13 | N=C(N)NCC/C=C(\NC(=O)[C@H](CCCCN)NC(=O)[C@H](Cc1cnc[nH]1)NC(=O)[C@@H]1CCCN1C(=O)[C@@H](CCCN)NC(=O)CNC(=O)[C@@H](NC(=O)[C@@H](NC(=O)[C@@H](N)CCCCN)[C@@H](O)CN)[C@H](CN)OC(=O)C(F)(F)F)C(=O)N[C@@H](CCCCN)C(=O)NCCCCN [224.1] (H-K[Dab(3S-OH)][X3]G[dOrn]PHK[ΔZArg]K-{NH(CH2)4NH2}) | ++ (≤8 μg/mL) | – | – | ++ (≤8 μg/mL) | + (≤32 μg/mL) | – | – | − (>32 μg/mL) | – | – | – | < 30
